Tests used:
Format in all cases: in vivo
[1] = test system: green rice leafhopper (Nephotettix cincticeps); test: Nephotettix test; settings: active compound concentration 0.1%; after 6 days; dipped rice seedlings (Oryza sativa)
Experimental: (§1) Nephotettix Test Solvent: 7 parts by weight of dimethylformamide Emulsifier: 1 part by weight of alkylaryl polyglycol ether To produce a suitable preparation of active compound, 1 part by weight of active compound is mixed with the stated amount of solvent and the stated amount of emulsifier, and the concentrate is diluted with water to the desired concentration. Rice seedlings (Oryza sativa) are treated by being dipped into the preparation of the active compound of the desired concentration and are infested with the green rice leafhopper (Nephotettix cincticeps) while the leaves are still moist. After the specified period of time, the destruction in % is determined. 100% means that all the leafhoppers have been killed; 0% means that none of the leafhoppers have been killed.

[2] = test system: mustard beetle larvae (Phaedon cochleariae); test: Phaedon larvae test; settings: active compound concentration 0.1%; after 7 days; dipped cabbage leaves (Brassica oleracea)
Experimental: as §1, with “Phaedon larvae” for “Nephotettix”, “Cabbage leaves (Brassica oleracea)” for “Rice seedlings (Oryza sativa)”, “mustard beetle larvae (Phaedon cochleariae),” for “the green rice leafhopper (Nephotettix cincticeps)”, “After the specified period of time, the destruction in % is determined.” left out, “beetle larvae” for “leafhoppers”

[3] = test system: peach aphid (Myzus persicae); test: Myzus test; settings: active compound concentration 0.1%; after 6 days; dipped infested cabbage leaves (Brassica oleracea)
Experimental: as §1, with “Myzus” for “Nephotettix”, “Cabbage leaves (Brassica oleracea) which have been heavily infested with the peach aphid (Myzus persicae)” for “Rice seedlings (Oryza sativa)”, “concentration.” for “concentration and are infested with the green rice leafhopper (Nephotettix cincticeps) while the leaves are still moist.”, “aphids” for “leafhoppers”

[4] = test system: common spider mite or two-spotted spider mite (Tetranychus urticae); test: Tetranychus test (OP-resistant/dipping treatment); settings: active compound concentration 0.1%; after 13 days; dipped infested bean plants (Phaseolus vulgaris)
Experimental: Tetranychus Test (OP-resistant/dipping Treatment)
Solvent: 7 parts by weight of dimethylformamide
Emulsifier: 1 part by weight of alkylaryl polyglycol ether
To produce a suitable preparation of active compound, 1 part by weight of active compound is mixed with the stated amount of solvent and the stated amount of emulsifier, and the concentrate is diluted with water to the desired concentration.
Bean plants (Phaseolus vulgaris) which have been heavily infested with the common spider mite or two-spotted spider mite (Tetranychus urticae) in all stages of development are treated by being dipped into the preparation of the active compound of the desired concentration.
After the specified period of time, the destruction in % is determined. 100% means that all the spider mites have been killed; 0% means that none of the spider mites have been killed.

[5] = test system: caterpillars of the diamond-back moth (Plutella xylostella); test: Plutella test; settings: active compound concentration 0.1%; after 7 days; dipped cabbage leaves (Brassica oleracea)
Experimental: Plutella Test Solvent: 7 parts by weight of dimethylformamide Emulsifier: 1 part by weight of alkylaryl polyglycol ether To produce a suitable preparation of active compound, 1 part by weight of active compound is mixed with the stated amount of solvent and the stated amount of emulsifier, and the concentrate is diluted with water to the desired concentration. Cabbage leaves (Brassica oleracea) are treated by being dipped into the preparation of the active compound of the desired concentration and are infested with caterpillars of the diamond-back moth (Plutella xylostella) while the leaves are still moist. After the specified period of time, the destruction in % is determined. 100% means that all the caterpillars have been killed; 0% means that none of the caterpillars have been killed.

Cc1cc(Br)cc(C)c1C1=C(O)C2(CCCC(C)C2)NC1=O (stereo not drawn) [Example I-1-a-1]
100%: destruction in % [1] | destruction in % [2]

Cc1cc(C)c(C2=C(O)C3(CCCCC3)OC2=O)c(Br)c1 [Example I-2-a-1]
100%: destruction in % [1] | destruction in % [2] | destruction in % [3] | action (destruction in %) [4]

Cc1cc(C)c(C2=C(OC(=O)C(C)(C)C)C3(CCCCC3)OC2=O)c(Br)c1 [Example I-2-b-1]
100%: destruction in % [1] | destruction in % [2] | destruction in % [5]

From US6469196B2, “Dialkyl phenyl halide-substituted keto-enols for use as herbicides and pesticides” (Bayer Aktiengesellschaft, priority 1995, dated 2002)
